Test results published in US20010018956A1, “Multi-component system for modifying, degrading or bleaching lignin, lignin-containing materials or similar substances and processes for its use” (CONSORTIUM FUR ELEKTROCHEMISCHE INDUSTRIE GmbH, priority 1996, published 2001).

Test: Enzymatic bleaching of softwood sulfate pulp with laccase and mediator; kappa number determined after NaOH extraction
Conditions: laccase from Trametes versicolor 15 U/g of pulp; incubation time 2 hours; pH 4.5; 45° C.; oxygen pressure 1-10 bar; mediator dosage per 5 g of pulp as in table
Procedure: 5 g of bone-dry pulp (softwood O2 delignified), pulp consistency 30% (about 17 g moist) are added to the following solutions:
A) 56.5 mg of N-hydroxyacetanilide are added to 20 ml of tap water, while stirring, and the pH is adjusted with 0.5 mol/l of H2SO4 solution such that pH 4.5 results after addition of the pulp and the enzyme.
B) An amount of laccase from Trametes versicolor is added to 5 ml of tap water such that an activity of 15 U (1 U=conversion of 1 μmol of ABTS/minute/ml of enzyme) per g of pulp results.
Solutions A and B are brought together and topped up to 33 ml. After addition of the pulp, the mixture is mixed with a dough kneader for 2 minutes.
The pulp is then introduced into a reaction bomb preheated to 45° C. and incubated under an increased oxygen pressure of 1-10 bar for 1-4 hours.
Thereafter, the pulp is washed over a nylon screen (30 gm) and extracted for 1 hour at 60° C. at a pulp consistency of 2% with 8% of NaOH per g of pulp.
After renewed washing of the pulp, the kappa number is determined.

SMILES	Ligin degradation [%]
CC(=O)N(O)c1ccc(C#N)cc1 [N-hydroxy-4-cyanoacetanilide]	35.6
O=C(Oc1ccccc1)N(O)c1ccccc1 [Phenyl N-hydroxy-N-phenylcarbamate]	20.0
